Assay results reported in patent US9546176B2, “Small molecule bicyclic and tricyclic CFTR correctors” (DISCOVERYBIOMED, INC., priority 2012, dated 2017).

Experiments:
[1] = molecular target: T1, delF508-CFTR chloride ion channels (Homo sapiens, UniProt P13569, DEL508-508); assay: Ussing chamber short-circuit current in high-resistance CF human airway epithelial cell monolayer; type: cell-based; conditions: FIG. 15
T1 construct: delF508-CFTR chloride ion channels in a high-resistance CF human airway epithelial cell monolayer with Compound 1; endogenous in cells
Description: An electrical assay was also performed to determine the functional rescue of delF508-CFTR to the apical cell membrane in a polarized epithelium using the compounds described herein. The metrics analyzed were the basal short-circuit Cl^− current, the change or delta Cl^− current stimulated by forskolin, the total stimulated Cl^− current (basal and forskolin), and the change or delta Cl^− current inhibited by GlyH101. For exemplary purposes, DMSO (100 nM) and VX-809 (100 nM equivalent) treatments were controls, and a CFCL corrector was tested (see FIG. 14).
Only high-resistance cell monolayers (>800 to 1,000 Ohms per cm^2) were used in the experiments. Basal short-circuit current (ISC) was measured and documented. Amiloride was added to the apical side of the Ussing chamber to block any contribution of ENaC or other sodium or cation channels under basal or stimulated conditions. The effect of amiloride was negligible under these cell culture conditions. In the continued presence of amiloride (100 μM), forskolin (10 μM) was added to both sides of the monolayer to selectively open any delF508-CFTR chloride channels in the apical cell membrane. This activation step uncovered any remaining corrected delF508-CFTR chloride ion channels in the apical membrane of the polarized CF human bronchial epithelium. […]

delF508-CFTR = molecular target: T2, delF508-CFTR (Homo sapiens, UniProt P13569, DEL508-508); assay: SPQ halide-sensitive fluorescence dye assay for rescue of halide efflux (8-point concentration-response); type: cell-based
T2 construct: endogenous in cells; host or cells: CFBE41o- human CF bronchial epithelial cells (delF508 homozygous)
How it was run: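 CFBE41o- cells loaded with SPQ were incubated with compounds (10 μM in triplicate; 8-point concentration-response for EC50) for 48 h at room temperature. Baseline fluorescence was read in NaCl Ringer, then NaCl was replaced by NaNO3 Ringer and read over four minutes. ΔSPQ is the difference between maximum and minimum SPQ values.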

T2 sequence (P13569 with tags, fused parts or gaps DEL508-508): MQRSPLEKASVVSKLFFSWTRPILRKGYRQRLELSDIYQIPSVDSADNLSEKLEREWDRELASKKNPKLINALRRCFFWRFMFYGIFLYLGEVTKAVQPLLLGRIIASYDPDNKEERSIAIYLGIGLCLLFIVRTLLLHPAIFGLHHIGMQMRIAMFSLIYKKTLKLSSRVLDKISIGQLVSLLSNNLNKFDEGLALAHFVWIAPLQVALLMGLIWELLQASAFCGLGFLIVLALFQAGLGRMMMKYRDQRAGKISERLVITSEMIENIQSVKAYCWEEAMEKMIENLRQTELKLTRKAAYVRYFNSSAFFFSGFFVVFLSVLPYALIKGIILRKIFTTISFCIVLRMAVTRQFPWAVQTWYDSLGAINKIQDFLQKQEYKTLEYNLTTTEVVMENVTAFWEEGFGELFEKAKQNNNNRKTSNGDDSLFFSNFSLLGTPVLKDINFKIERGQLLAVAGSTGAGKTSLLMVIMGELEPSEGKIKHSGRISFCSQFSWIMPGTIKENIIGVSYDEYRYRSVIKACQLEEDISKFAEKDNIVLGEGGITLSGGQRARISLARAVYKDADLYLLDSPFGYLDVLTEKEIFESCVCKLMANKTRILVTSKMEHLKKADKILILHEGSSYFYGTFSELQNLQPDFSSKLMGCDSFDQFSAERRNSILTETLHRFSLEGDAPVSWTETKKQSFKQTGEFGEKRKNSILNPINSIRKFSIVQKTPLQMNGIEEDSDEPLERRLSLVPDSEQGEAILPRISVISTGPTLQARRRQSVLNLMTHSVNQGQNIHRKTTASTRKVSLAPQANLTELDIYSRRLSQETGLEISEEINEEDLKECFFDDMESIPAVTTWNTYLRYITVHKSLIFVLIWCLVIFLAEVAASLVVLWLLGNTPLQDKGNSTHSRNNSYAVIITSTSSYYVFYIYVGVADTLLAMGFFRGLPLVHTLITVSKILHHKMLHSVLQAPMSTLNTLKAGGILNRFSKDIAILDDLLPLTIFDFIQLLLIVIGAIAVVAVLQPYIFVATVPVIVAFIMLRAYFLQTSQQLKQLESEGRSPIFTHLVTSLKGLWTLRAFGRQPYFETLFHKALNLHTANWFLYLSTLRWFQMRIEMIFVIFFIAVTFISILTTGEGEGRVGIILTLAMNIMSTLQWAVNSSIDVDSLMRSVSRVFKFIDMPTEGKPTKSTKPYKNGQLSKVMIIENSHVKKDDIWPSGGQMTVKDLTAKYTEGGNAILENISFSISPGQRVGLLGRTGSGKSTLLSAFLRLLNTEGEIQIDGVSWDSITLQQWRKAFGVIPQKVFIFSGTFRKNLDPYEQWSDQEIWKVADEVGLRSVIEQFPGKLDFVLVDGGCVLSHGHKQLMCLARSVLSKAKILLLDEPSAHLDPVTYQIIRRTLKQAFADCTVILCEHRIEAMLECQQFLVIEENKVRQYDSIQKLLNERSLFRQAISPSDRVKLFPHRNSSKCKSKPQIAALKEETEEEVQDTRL
T1 sequence (P13569 with tags, fused parts or gaps DEL508-508): as above

## CC1(C)Cc2c(sc3c2c(=O)n(CCO)c(=O)n3Cc2ccccc2)CO1 [Compound 1]
[1]
  potency and efficacy versus VX-809, short-circuit current: superior potency and equivalent efficacy versus VX-809
delF508-CFTR
  EC50: 3.5 µM
delF508-CFTR; CFBE41o- cells, 48 h
  ΔSPQ (difference between maximum and minimum SPQ values): 8345 RFU
delF508-CFTR; versus VX-809
  potency and efficacy compared with VX-809 in SPQ assay: superior potency and efficacy to VX-809
